Data from patent publication US20100130600A1, “LIPOPROTEIN LIPASE AND ITS EFFECT ON STATIN TREATMENTS” (CEDARS-SINAI MEDICAL CENTER, priority 2007, published 2010).

Assay: Post-CABG Trial: lipid response to lovastatin therapy (baseline vs post-treatment lipid levels)
Type: in vivo, human
Method: As described herein, the inventors asked whether LPL haplotypes influence response to lipid-lowering therapy. They studied 830 subjects from the Post-Coronary Artery Bypass Graft trial, in which subjects with at least one patent saphenous vein graft were treated moderately or aggressively with lovastatin. A lipid profile was obtained at baseline and 4-5 years after treatment. 12 SNPs spanning the 3′ end of LPL were genotyped using the 5′-exonuclease (Taqman MBG) reaction. Haplotypes were constructed using the accelerated expectation maximization algorithm implemented in the program Haploview. Association with lipid response was evaluated using analysis of covariance (ANCOVA). Age, body mass index, race, current smoking status, time between CABG and study enrollment, and lovastatin treatment group were taken as covariates in the association analyses. […] Conversely, Haplotypes 6, 7, and 8 were each associated with increased HDL-C response to therapy compared to respective non-carriers. Haplotype 2 was associated with a smaller increment in triglycerides (Haplotype 2 carriers: +2.6% versus non-carriers: +11.8% change in triglycerides, P=0.02). These effects of LPL haplotypes on HDL-C and triglyceride response were independent of whether subjects were in the intensive or moderate treatment group. […] The most common haplotype, haplotype 1, was protective against graft worsening or occlusion. LPL may influence atherosclerosis risk through pleiotropic effects on each aspect of the metabolic syndrome.
This genetic association study is ancillary to the Post-Coronary Artery Bypass Graft Trial (Post-CABG Trial) (Taylor K D, Genet Med 2004, 6: 481-486; The Post Coronary Artery Bypass Graft Trial Investigators, N Engl J Med 1997, 336: 153-162). A total of 1351 subjects from seven clinical centers throughout North America were included in the clinical trial and all were eligible as participants in this genetic ancillary study. Inclusion and exclusion criteria have been previously described (The Post Coronary Artery Bypass Graft Trial Investigators, N Engl J Med 1997, 336: 153-162). Subjects were randomly assigned for treatment to lower LDL-cholesterol levels with lovastatin, aggressively (target LDL 1.55-2.20 mmol/L (60-85 mg/dL)), cholestryramine added to lovastatin if necessary to reach target) or moderately (target LDL 3.36-3.62 mmol/L (130-140 mg/dL)). For the genetic study, DNA was isolated from 903 subjects following standard protocols. Follow-up complete angiographic data, lipid values, and DNA were available from 891 of these individuals. Subjects in this genetic study were collected in the latter years of the larger Post-CABG trial.
All demographic, family history, medical history, and clinical data were collected as part of the Post-CABG Trial.14 The progression of atherosclerosis was quantitatively determined by comparison of an initial angiogram at enrollment with a follow-up angiogram repeated an average of 4.3 years later. Baseline and follow-up angiography were obtained with catheterization techniques that permitted computer-assisted quantitative measurement. An initially patent graft was defined as having progression of atherosclerosis if there was a decrease of 0.6 mm or more in lumen diameter at the site of greatest change at follow-up. Subjects with “progression of atherosclerosis” were defined as those subjects with one or more grafts showing progression. Graft occlusion was also assessed. Baseline and post-treatment lipid levels (total cholesterol, TC; LDL-cholesterol, LDL-C; HDL-cholesterol, HDL-C; and triglycerides, TG) were obtained.
The primary phenotypes analyzed for association with LPL haplotypes were: a) the progression of atherosclerosis, and b) lipid response to lovastatin therapy. Secondary analyses included association of the LPL haplotypes with baseline lipid and systolic and diastolic blood pressure (SBP and DBP) measurements. […]

[1] = 891 post-CABG subjects, mean ± SD (range)
[2] = aggressive treatment group (target LDL 60-85 mg/dL, cholestyramine added if necessary)
[3] = moderate treatment group (target LDL 130-140 mg/dL)

CC[C@H](C)C(=O)O[C@H]1C[C@@H](C)C=C2C=C[C@H](C)[C@H](CC[C@@H]3C[C@@H](O)CC(=O)O3)[C@H]21 [lovastatin]
HDL-C response [1]: 13.8 ± 24.4 (−61.9-153.1) % | LDL-C response [1]: −25.7 ± 20.6 (−78.8-45.9) % | Total cholesterol response [1]: −15.3 ± 16.3 (−58.4-43.5) % | Triglyceride response [1]: 7.5 ± 53.0 (−81.6-330.2) % | reduction in LDL-C (Post-CABG trial, overall): 26% | reduction in total cholesterol (TC) (Post-CABG trial, overall): 15% | reduction in LDL-C [2]: 37% | reduction in total cholesterol (TC) [2]: 23% | Response in HDL-C and triglycerides (TG) (aggressive versus moderate treatment group): did not differ between the two treatment groups | Percent change in HDL-C (carriers of LPL haplotype 12-1, mean ± SD): 12.6 ± 24.3 (568) % | change in triglycerides (carriers of LPL haplotype 12-2): +2.6% | Percent change in HDL-C (carriers of LPL haplotype 12-2, mean ± SD): 12.4 ± 24.5 (295) % | Percent change in HDL-C (carriers of LPL haplotype 12-3, mean ± SD): 14.2 ± 23.5 (262) % | Percent change in HDL-C (carriers of LPL haplotype 12-5, mean ± SD): 11.4 ± 25.6 (61) % | Percent change in HDL-C (carriers of LPL haplotype 12-6, mean ± SD): 24.8 ± 19.8 (52) % | Percent change in HDL-C (carriers of LPL haplotype 12-7, mean ± SD): 21.9 ± 24.1 (44) % | Percent change in HDL-C (carriers of LPL haplotype 12-8, mean ± SD): 23.0 ± 26.0 (43) % | reduction in LDL-C [3]: 14% | reduction in total cholesterol (TC) [3]: 7% | Percent change in HDL-C (non-carriers of LPL haplotype 12-1, mean ± SD): 15.2 ± 24.2 (261) % | change in triglycerides (non-carriers of LPL haplotype 12-2): +11.8% | Percent change in HDL-C (non-carriers of LPL haplotype 12-2, mean ± SD): 14.0 ± 24.2 (534) % | Percent change in HDL-C (non-carriers of LPL haplotype 12-3, mean ± SD): 13.1 ± 24.7 (567) % | Percent change in HDL-C (non-carriers of LPL haplotype 12-5, mean ± SD): 13.6 ± 24.2 (768) % | Percent change in HDL-C (non-carriers of LPL haplotype 12-6, mean ± SD): 12.7 ± 24.4 (777) % | Percent change in HDL-C (non-carriers of LPL haplotype 12-7, mean ± SD): 13.0 ± 24.3 (785) % | Percent change in HDL-C (non-carriers of LPL haplotype 12-8, mean ± SD): 12.8 ± 24.4 (786) %
